Data on two molecules can be found in publication PMC4183567, “Cysteine Transport through Excitatory Amino Acid Transporter 3 (EAAT3)” (PLoS ONE, 2014).

The structures appear in SMILES notation. “And” between values parts separate entries of the source, which are not always exact repeats. Equal entries are not always repeated. Where two headings read alike, the source gives them in different places.

Series [1] addresses T1, EAAT3 (Homo sapiens, UniProt P43005).
T1 sequence (P43005 1-524): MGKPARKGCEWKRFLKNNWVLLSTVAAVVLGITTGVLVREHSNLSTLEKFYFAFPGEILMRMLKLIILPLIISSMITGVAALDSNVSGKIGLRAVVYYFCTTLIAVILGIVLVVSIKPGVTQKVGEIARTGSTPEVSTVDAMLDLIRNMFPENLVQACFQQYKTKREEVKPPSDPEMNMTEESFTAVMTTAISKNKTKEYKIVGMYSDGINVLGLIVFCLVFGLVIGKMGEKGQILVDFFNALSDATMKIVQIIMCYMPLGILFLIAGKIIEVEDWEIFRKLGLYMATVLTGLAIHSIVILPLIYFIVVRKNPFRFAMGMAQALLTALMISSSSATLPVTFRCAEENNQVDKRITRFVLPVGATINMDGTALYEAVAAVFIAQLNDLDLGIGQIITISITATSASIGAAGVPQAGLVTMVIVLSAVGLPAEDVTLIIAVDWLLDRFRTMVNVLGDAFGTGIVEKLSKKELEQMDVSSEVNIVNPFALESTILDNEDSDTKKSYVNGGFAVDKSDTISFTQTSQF
The series can be described thus: Two-electrode voltage clamp transport currents in Xenopus oocytes expressing EAAT3. It is filed as cell-based. As to conditions: for transport current amplitude relative to glutamate transport current: 1 mM substrate vs 1 mM glutamate, EAAT3 oocytes, -60 mV. The procedure:
(§1) mRNA from linearized pOTV-EAAT1, pOTV-EAAT2 and pOTV-EAAT3 was generated as previously described and resuspended in RNAase-free water and used for oocytes injections. Xenopus oocytes where injected with 50 nl of mRNA and incubated at 18°C in 96 mM NaCl, 2 mM KCl, 1.8 mM CaCl2, 1.0 mM MgCl2, 5 mM HEPES, pH 7.4 (ND96) supplemented with 2.5 mM Sodium Pyruvate and Gentamicyn for 2 to 3 days prior to using in electrophysiological recordings and radio-labeled transport experiments.
(§2) Oocytes were held at −60 mV, and currents elicited by 200 ms voltage steps between −120 mV and +60 mV were filtered at 2 kHz (−3dB) and digitalized with a sampling rate of 10 kHz using a Digidata AD/DA converter (Molecular Devices, Sunnyvale, CA, USA). Borosilicate pipets where filled with 3 M KCl and typical resistances where 0.2 to 1 MΩ. Transport currents were determined at −60 mV in a gluconate-based ND96 solution. In order to dialyze internal chloride, oocytes were incubated 12 to 24 hours in the gluconate solution. Anion currents were determined at positive potentials (+60 mV) after exchanging the external solution to NO3-based ND96 (replacement of 96 mM NaCl with 96 mM NaNO3) solution in the absence or in the presence of 1 mM external substrates. In experiments using cysteine as a substrate, all solutions contained 2 mM dithiothreitol (DTT). Data were analyzed with a combination of pClamp 9.2 (Axon Instrument) and Sigma Plot (Jandel Scientific, San Rafael, CA, USA). Whole cell current amplitudes are shown without any subtraction protocol. Current-voltage relationships were constructed by plotting the isochronal current 6 ms after the voltage step versus the membrane potential. All data are given as the mean ± standard deviation of the mean (SDM). For evaluation the statistical relevance, the Student’s t-Test was used with an α of 0.05.
(In general: Two-electrode voltage clamp is typically applied to oocytes expressing channels or transporters.)

The target in another series is T2, EAAT1 (Homo sapiens, UniProt P43003).
T2 construct: expressed in transfected cells; host or cells: Xenopus oocytes injected with mRNA
The series can be described thus: Two-electrode voltage clamp transport currents in Xenopus oocytes expressing EAAT1. It is filed as cell-based. As to conditions: 1 mM substrate vs 1 mM glutamate, -60 mV. The procedure:
as §1
as §2, with “In experiments using cysteine as a substrate, all solutions contained 2 mM dithiothreitol (DTT).” left out, “Whole cell current amplitudes are shown without any subtraction protocol. Current-voltage relationships were constructed by plotting the isochronal current 6 ms after the voltage step versus the membrane potential. All data are given as the mean ± standard deviation of the mean (SDM). For evaluation the statistical relevance, the Student’s t-Test was used with an α of 0.05.” left out

Series [2] concerns the target T3, EAAT2 (Homo sapiens, UniProt P43004). The series can be described thus: Two-electrode voltage clamp transport currents in Xenopus oocytes expressing EAAT2. It is filed as cell-based. As to conditions: 1 mM substrate vs 1 mM glutamate, -60 mV. The protocol:
as §1
as §2, with “In experiments using cysteine as a substrate, all solutions contained 2 mM dithiothreitol (DTT).” left out, “Whole cell current amplitudes are shown without any subtraction protocol. Current-voltage relationships were constructed by plotting the isochronal current 6 ms after the voltage step versus the membrane potential. All data are given as the mean ± standard deviation of the mean (SDM). For evaluation the statistical relevance, the Student’s t-Test was used with an α of 0.05.” left out

For series [3], the system named is EAAT3 and ASCT1. The series is described as follows: Release of preloaded [35S]-L-cysteine from Xenopus oocytes co-expressing EAAT3 and ASCT1. It is filed as cell-based, human. The procedure:
mRNA from linearized pOTV-EAAT1, pOTV-EAAT2 and pOTV-EAAT3 was generated as previously described and resuspended in RNAase-free water and used for oocytes injections.
(§3) Oocytes were washed 3 times in ND96 buffer followed by incubation for 10 min with non-radiolabeled substrates as indicated. The supernatant was removed and collected for scintillation counting, while the oocytes were lysed in 1% sodium dodecylsulfate (SDS). The oocytes lysate and supernatant were counted separately by liquid scintillation counting to determine both retained and released radioactivity respectively. Percent of released radioactivity was determined as a function of the released/(retained + released).

The target of series [4] is T4, EAAT3 and ASCT1 (Homo sapiens, UniProt P43005).
T4 construct: expressed in transfected cells; host or cells: Xenopus oocytes
T4 sequence (P43005 1-524): T1 sequence (P43005 1-524)
The series can be described thus: Release of preloaded [3H]-L-glutamate from Xenopus oocytes co-expressing EAAT3 and ASCT1. It counts as cell-based. To be noted: extracellular cysteine, concentration not given. The protocol: as §1, §3

The nature of series [5]: Protonation state calculated with the Henderson-Hasselbalch equation. It counts as physicochemical.
The test system of series [6] is EAAT2. Also on record: method as in PMID 8782106. To be noted: EAAT2, low affinity; read-out: Km for cysteine transport; cited from earlier work.
Series [7] has as its system EAAT3. Also on record: method as in PMID 8782106. As to conditions: EAAT3 vs other EAATs; cited from earlier work.
Series [8] addresses T3, EAAT2. The series is described as follows: Substrate inhibition of [3H]-L-glutamate uptake in HEK293 cells expressing EAAT2. It is filed as cell-based. Also on record: expressed in transfected cells; host or cells: HEK293. The procedure:
(§4) For radiolabeled transport experiments, 2×10^6 cells were transfected in 1 mL of Opti-Mem (Life Technologies) using 6 µL of Lipofectamine 2000 (Invitrogen) with 1 µg pCMV-EAAT2 or pCMV-EAAT3 DNA and plated at 5×10^4 cells/well in 24 well Costar (Corning) plates with 0.5 mL DMEM culture media prepared as above. Following transfection and plating, cells were cultured 2–3 days prior to [^3H]-L-Glutamate transport experiments.
(§5) Transport was allowed to proceed for 10 min and was terminated by 3 washes with cold perfusion buffer. Cells were lysed with 1% SDS/0.1N NaOH and radioactivity determined by scintillation counting. Data analysis was performed using Graphpad Prism (Graphpad Software Inc.).

Series [9] addresses T1, EAAT3. The series is described as follows: Substrate inhibition of [3H]-L-glutamate uptake in HEK293 cells expressing EAAT3. It counts as cell-based. The arrangement: expressed in transfected cells; host or cells: HEK293. The protocol:
as §4, §5

Series [10] has as its target T3, EAAT2. The series is described as follows: mEGFPpH fluorescence imaging of intracellular pH in HEK293 cells co-expressing EAAT2. It counts as cell-based. As to conditions: for mEGFPpH fluorescence change: 1 mM perfusion; for slope of fluorescence change normalized to that of 100 µM glutamate: selenocysteine at 100 µM. Also on record: expressed in transfected cells; host or cells: HEK293.
Excerpt: (§6) Cells expressing mEGFPpH were imaged with a Zeiss Axiovert 135T inverted microscope with a 40X NeoFluar oil immersion objective (NA1.3). A Lambda DG4 (Sutter Instrument Co.) equipped with a xenon arc lamp was used for high-speed excitation wavelength switching. Images were collected using either a Quantix (Roper Scientific, Tucson, AZ) or an Orca ER (Hammamatsu Co.) cooled CCD. For pH imaging experiments, the fluorescence filters (Omega Optical) were: excitation 405±20 and 485±7.5; dichroic 400-480-585DLRP; emission 510±11.5. Software control and data acquisition were accomplished using Axon Imaging Workbench (INDEC Biosystems) or OpenLab acquisition software (Improvision, Perkin Elmer). Cells were incubated at room temperature with continuous perfusion using standard buffer containing (in mM): 146 NaCl, 5 KCl, 5 HEPES, 2.5 CaCl2 and 1.2 MgCl2 at pH 7.35 with additions (substrates etc.) as indicated in figure legends. Acquisition exposure times were identical for both 405 nm and 485 nm excitation wavelengths adjusted so that the 510 emission was not saturated for either excitation wavelength. Prior to perfusion with buffers containing substrates, cells were perfused in standard buffer to achieve a stable base line. Fluorescence was reported as the ratio of fluorescence at 510 nm by excitation with 485 and 405 nm wavelengths (F485/F405).

The target of series [11] is T1, EAAT3. The series is described as follows: mEGFPpH fluorescence imaging of intracellular pH in HEK293 cells co-expressing EAAT3. As to conditions: EAAT3 HEK293 cells; for mEGFPpH fluorescence change: 1 mM perfusion; for slope of fluorescence change normalized to that of 100 µM glutamate: selenocysteine at 100 µM, cysteine change opposite in direction.
Excerpt: as §6
The target of series [12] is T1, EAAT3. The series can be described thus: Substrate-gated anion (NO3) currents in Xenopus oocytes expressing EAAT3. It counts as cell-based. To be noted: 1 mM substrate, NO3-based solution, Figure 2C, n = 4. The protocol: as §1, §2
For series [13] the following is noted: amino acid side chain; cited from earlier work.

T3 sequence (P43004 whole entry): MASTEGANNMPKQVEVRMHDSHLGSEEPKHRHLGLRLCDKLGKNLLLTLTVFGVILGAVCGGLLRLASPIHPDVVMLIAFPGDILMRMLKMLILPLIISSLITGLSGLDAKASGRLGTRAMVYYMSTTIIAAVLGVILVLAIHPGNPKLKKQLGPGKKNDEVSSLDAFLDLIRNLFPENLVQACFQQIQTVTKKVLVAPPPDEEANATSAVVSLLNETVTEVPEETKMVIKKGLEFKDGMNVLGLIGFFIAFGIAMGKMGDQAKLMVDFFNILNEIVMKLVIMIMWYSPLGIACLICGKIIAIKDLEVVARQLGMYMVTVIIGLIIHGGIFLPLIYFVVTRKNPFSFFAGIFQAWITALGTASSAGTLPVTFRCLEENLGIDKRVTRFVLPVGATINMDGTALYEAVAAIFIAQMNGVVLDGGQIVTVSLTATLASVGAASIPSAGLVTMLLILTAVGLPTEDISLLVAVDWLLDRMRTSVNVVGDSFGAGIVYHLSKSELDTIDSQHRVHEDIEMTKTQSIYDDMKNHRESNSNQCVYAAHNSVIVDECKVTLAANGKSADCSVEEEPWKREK
T2 sequence (P43003 whole entry): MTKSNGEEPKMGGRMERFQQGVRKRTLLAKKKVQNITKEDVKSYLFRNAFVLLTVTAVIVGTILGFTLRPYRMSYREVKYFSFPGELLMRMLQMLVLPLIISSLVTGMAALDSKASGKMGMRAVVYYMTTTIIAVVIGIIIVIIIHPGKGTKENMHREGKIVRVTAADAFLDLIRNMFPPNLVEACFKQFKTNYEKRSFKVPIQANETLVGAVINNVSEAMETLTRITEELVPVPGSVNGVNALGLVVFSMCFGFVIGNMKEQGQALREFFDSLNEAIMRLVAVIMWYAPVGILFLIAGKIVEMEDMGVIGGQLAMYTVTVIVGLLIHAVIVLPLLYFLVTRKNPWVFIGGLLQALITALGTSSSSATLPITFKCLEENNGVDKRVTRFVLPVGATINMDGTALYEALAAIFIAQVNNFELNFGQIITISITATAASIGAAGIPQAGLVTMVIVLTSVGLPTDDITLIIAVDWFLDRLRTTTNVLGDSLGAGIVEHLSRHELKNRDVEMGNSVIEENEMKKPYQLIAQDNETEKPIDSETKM

A word on the Km: it is the substrate concentration at which the rate is half of its maximum. By inhibition is commonly meant the drop in the measured response relative to a control, in per cent. Usually IC50 stands for the concentration that inhibits the measured activity by half. The low end stands for higher potency, the high end for lower potency. On to `N[C@@H](CS)C(=O)O` [cysteine, L-cysteine], for which the “transport current amplitude relative to glutamate transport current” value was found to be 86±14% at EAAT3 [1], 33±1.5% at EAAT1 and 7.0±4.2% at EAAT2 [2]. Further, the “fold increase of [35S]-cysteine release over that released by glutamate application” value in the series with EAAT3 and ASCT1 [3] (300 µM cysteine vs 100 µM glutamate) is recorded as 5 fold. For the same molecule, in the series with EAAT3 and ASCT1 [3] (300 µM extracellular substrate, 10 min), the “release of preloaded [35S]-L-cysteine” value is on record as 10%. In addition, on EAAT3 and ASCT1 [4], the “release of loaded [3H]-L-glutamate” value was found to be 7.5%. The “fraction in thiolate form” value was ~3.8% and 4% in series [5] (pH 6.9); approximately 14% in [5] (pH = 7.5). Moreover, the “fraction in thiolate (R-S-) form” value in series [5] (pH 8.5) is approximately 61%. Besides, in series [5] (physiological pH), the fraction protonated is approximately 90%. For the same molecule, the Michaelis constant (Km) in the series on EAAT2 [6] was more than 1000 µM. The “fold higher apparent affinity for transport (Km) than the other members of the family” value in the series on EAAT3 [7] was “approximately 10 fold”. The inhibition at 1000 µM came out at 20% on EAAT2 [8] (read-out: inhibition of glutamate transport, EAAT2 HEK293 cells, 1 mM inhibitor) and 70% at EAAT3 [9] (read-out: inhibition of glutamate uptake, EAAT3 HEK293 cells, 1 mM inhibitor). The molecule further displayed a 50% inhibitory concentration (IC50) on EAAT3 [9] of 631 ± 50 µM. Also, the mEGFPpH fluorescence change entry at EAAT2 [10] was “did not produce observable fluorescence changes from baseline”; on EAAT3 [11], “increase in mEGFPpH fluorescence”. In addition, the “slope of fluorescence change normalized to that of 100 µM glutamate” value on EAAT2 [10] was “no observable fluorescence changes”; on EAAT3 [11] it was 0.28±0.03.

Turning to `N[C@@H](C[SeH])C(=O)O` [selenocysteine, L-selenocysteine], the inward transport current at EAAT3 [1] (1 µM selenocysteine perfusion, Figure 2A) is 20 nA. In addition, the entries for the “transport current amplitude relative to glutamate transport current” value at EAAT3 [1], on EAAT1 and at EAAT2 [2] were 95.6±14%, 89.5±6.7% and 72.1±17%, respectively. Also, the “anion current amplitude at +60 mV” value at EAAT3 [12] is listed as 1.72±0.4 µA. Further, the “fraction in deprotonated state” value in series [5] (physiological pH) was more than 99%. Also, in series [13], the “side chain pKa” value is 5.3. For the same molecule, the IC50 against EAAT2 [8] amounted to 46 ± 12 µM; against EAAT3 [9] it was 71 ± 10 µM. Moreover, the inhibition at 1000 µM is approximately 90% on EAAT2 [8] (HEK293, read-out: inhibition of glutamate transport) and more than 90% on EAAT3 [9] (HEK293, read-out: inhibition of glutamate uptake). Also, the “fold lower IC50 than for cysteine” value at EAAT3 [9] (EAAT3 HEK293 cells) is listed as “approximately 10 fold”. The mEGFPpH fluorescence change result at EAAT2 [10] is “fluorescence decrease similar in magnitude to that observed for glutamate”; at EAAT3 [11] it was “fluorescence decrease”. The results for the “slope of fluorescence change normalized to that of 100 µM glutamate” value at EAAT2 [10] and at EAAT3 [11] were 0.85±0.02 and 0.86±0.03, respectively.
